Molecular target: T1, PRKD1 (PKC mu) (Homo sapiens, UniProt Q15139)
T1 construct: purchased Thermo Fisher Scientific (Life Technologies) SelectScreen
Experiment: SelectScreen Z'LYTE
Type: biochemical
Description: The in vitro kinase selectivity of NU5455 was determined using the SelectScreen Broad Assay Panel (Thermo Fisher Scientific) involving activity and binding assays (Supplemental Table 1). […] Class IA PI3Ks were measured using the p85α subunit.
Kinase [ATP] % Assay Kinase [ATP] % Assay Kinase [ATP] % Assay Kinase [ATP] % Assay
DNA-PK Km app 98.3 Z LATS2 n/a 4.7 L KIT D820E n/a 1.3 L GSK3B (GSK3 beta) Km app -2.5 Z
PIK3C3 (hVPS34) Km app 85.9 A PRKCZ (PKC zeta) Km app 4.7 Z GRK1 n/a 1.3 L BMPR2 n/a -2.5 L
PIK3C2B (PI3K-C2 beta) 10 28.9 A FGFR1 Km app 4.7 Z BRSK2 n/a 1.2 L CDC42 BPB (MRCKB) Km app -2.5 Z
SNF1LK2 Km app 26.6 Z MINK1 Km app 4.6 Z NUAK1 (ARK5) Km app 1.2 A AMPK (A2/B2/G2) n/a -2.6 L
HCK Km app 18.0 Z CSF1R (FMS) Km app 4.3 Z CDK9/cyclin K n/a 1.0 L PRKG1 Km app -2.7 Z
NEK2 Km app 17.8 Z CSNK1G3 (CK1 gamma 3) Km app 4.2 Z NUAK2 n/a 1.0 L KIT T670E n/a -2.8 L
ALK Km app 17.3 Z STK32C (YANK3) n/a 4.2 L CDK2/cyclin O n/a 0.9 L ERBB4 (HER4) Km app -2.8 Z
FGFR3 K650M n/a 16.5 L STK22D (TSSK1) Km app 4.2 Z CAMKK2 (CaMKK beta) n/a 0.9 L PLK4 n/a -2.8 L
SIK3 n/a 16.1 L TAOK3 (JIK) n/a 4.2 L FGFR3 Km app 0.9 Z GRK7 Km app -3.0 Z
LYN A Km app 15.2 Z RPS6KA4 (MSK2) Km app 4.2 Z ULK2 n/a 0.9 L MAPKAPK2 Km app -3.1 Z
BMPR1B (ALK6) n/a 14.5 L PTK2B (FAK2) Km app 4.2 Z KIT D816V n/a 0.9 L FGFR4 Km app -3.1 Z
INSRR (IRR) Km app 14.1 Z CLK2 Km app 4.1 Z CAMK1 (CaMK1) 10 0.8 A CASK n/a -3.1 L
PLK2 Km app 14.1 Z STK24 (MST3) Km app 4.1 Z PTK6 (Brk) Km app 0.7 Z GRK5 Km app -3.2 Z
PRKACA (PKA) Km app 14.0 Z CAMK1D (CaMKI delta) Km app 4.1 Z CAMK2B (CaMKII beta) Km app 0.7 Z EGFR (ErbB1) T790M Km app -3.3 Z
EIF2AK2 (PKR) n/a 13.3 L INSR Km app 4.1 Z ACVR1 (ALK2) n/a 0.7 L PAK4 Km app -3.3 Z
PRKX Km app 12.5 Z IRAK1 Km app 4.0 A ABL1 H396P n/a 0.6 L DAPK3 (ZIPK) Km app -3.4 Z
FGR Km app 12.1 Z SRC N1 Km app 3.9 Z MERTK (cMER) A708S n/a 0.6 L RET M918T n/a -3.5 L
CLK1 Km app 11.7 Z SRPK2 Km app 3.9 Z MAPKAPK5 (PRAK) Km app 0.6 Z PRKCQ (PKC theta) Km app -3.7 Z
MARK3 Km app 11.4 Z RPS6KA6 (RSK4) Km app 3.8 Z AKT1 (PKB alpha) Km app 0.5 Z CAMKK1 (CAMKKA) n/a -3.8 L
PDGFRB (PDGFR beta) Km app 11.0 Z GRK6 Km app 3.7 Z NTRK3 (TRKC) Km app 0.4 Z FLT3 D835Y Km app -3.9 Z
PRKCN (PKD3) Km app 10.7 Z PKN1 (PRK1) Km app 3.6 Z ZAP70 Km app 0.3 Z ROCK2 Km app -4.1 Z
STK16 (PKL12) n/a 10.5 L MAP3K8 (COT) 100 3.5 Z CSNK1A1 (CK1 alpha 1) Km app 0.3 Z CHUK (IKK alpha) Km app -4.2 A
FES (FPS) Km app 10.4 Z FLT4 (VEGFR3) Km app 3.5 Z MYLK (MLCK) n/a 0.2 L AXL Km app -4.2 Z
ABL1 Km app 10.4 Z GRK4 Km app 3.5 Z MKNK2 (MNK2) n/a 0.2 L PIM2 Km app -4.3 Z
MUSK Km app 10.3 Z FRK (PTK5) Km app 3.4 Z AMPK (A1/B1/G3) n/a 0.2 L PAK1 Km app -4.4 Z
MAPK1 (ERK2) Km app 10.1 Z FYN A n/a 3.3 L MAP3K2 (MEKK2) n/a 0.1 L BMPR1A (ALK3) n/a -4.4 L
BRAF 100 9.9 Z CDK1/cyclin A2 n/a 3.3 L CDK8/cyclin C n/a 0.1 L STK4 (MST1) Km app -4.4 Z
IGF1R Km app 9.7 Z KIT V559D T670I n/a 3.1 L MARK2 Km app 0.1 Z PRKCH (PKC eta) Km app -4.6 Z
MAPK14 (p38 alpha) Km app 9.7 Z SPHK2 10 3.1 A ICK n/a 0.0 L SGKL (SGK3) Km app -4.6 Z
LCK Km app 9.6 Z FGFR3 G697C n/a 3.1 L FGFR2 Km app 0.0 Z PI4KB (PI4K beta) Km app -4.7 A
MAPK11 (p38 beta) Km app 9.5 Z RIPK2 n/a 3.1 L AKT2 (PKB beta) Km app 0.0 Z PRKCE (PKC epsilon) Km app -4.9 Z
SRC Km app 9.5 Z PAK6 Km app 3.0 Z EPHB2 Km app -0.1 Z PHKG1 Km app -5.0 Z
CHEK1 (CHK1) Km app 9.3 Z LYN B Km app 3.0 Z TGFBR2 n/a -0.1 L PDGFRA D842V Km app -5.0 Z
CAMK2D (CaMKII delta) Km app 9.3 Z DAPK2 n/a 2.9 L TEK (Tie2) Km app -0.1 Z PRKG2 (PKG2) Km app -5.1 Z
PLK1 Km app 9.2 Z EPHA4 Km app 2.9 Z AURKA (Aurora A) Km app -0.1 Z TYRO3 (RSE) Km app -5.1 Z
RET Y791F Km app 9.2 Z PIK3CG (p110 gamma) Km app 2.9 A KIT D816H n/a -0.2 L TAOK2 (TAO1) Km app -5.1 Z
FLT3 Km app 9.1 Z HIPK1 (Myak) Km app 2.8 Z KIT N822K n/a -0.2 L EPHB4 Km app -5.3 Z
MAPK10 (JNK3) 100 9.0 Z ADRBK2 (GRK3) Km app 2.8 Z PRKACG (PRKAC gamma) n/a -0.2 L AURKC (Aurora C) Km app -5.4 Z
CSNK2A2 (CK2 alpha 2) Km app 8.7 Z STK17B (DRAK2) n/a 2.7 L TEK (TIE2) Y1108F n/a -0.3 L JAK1 Km app -5.7 Z […]

T1 sequence (Q15139 whole entry): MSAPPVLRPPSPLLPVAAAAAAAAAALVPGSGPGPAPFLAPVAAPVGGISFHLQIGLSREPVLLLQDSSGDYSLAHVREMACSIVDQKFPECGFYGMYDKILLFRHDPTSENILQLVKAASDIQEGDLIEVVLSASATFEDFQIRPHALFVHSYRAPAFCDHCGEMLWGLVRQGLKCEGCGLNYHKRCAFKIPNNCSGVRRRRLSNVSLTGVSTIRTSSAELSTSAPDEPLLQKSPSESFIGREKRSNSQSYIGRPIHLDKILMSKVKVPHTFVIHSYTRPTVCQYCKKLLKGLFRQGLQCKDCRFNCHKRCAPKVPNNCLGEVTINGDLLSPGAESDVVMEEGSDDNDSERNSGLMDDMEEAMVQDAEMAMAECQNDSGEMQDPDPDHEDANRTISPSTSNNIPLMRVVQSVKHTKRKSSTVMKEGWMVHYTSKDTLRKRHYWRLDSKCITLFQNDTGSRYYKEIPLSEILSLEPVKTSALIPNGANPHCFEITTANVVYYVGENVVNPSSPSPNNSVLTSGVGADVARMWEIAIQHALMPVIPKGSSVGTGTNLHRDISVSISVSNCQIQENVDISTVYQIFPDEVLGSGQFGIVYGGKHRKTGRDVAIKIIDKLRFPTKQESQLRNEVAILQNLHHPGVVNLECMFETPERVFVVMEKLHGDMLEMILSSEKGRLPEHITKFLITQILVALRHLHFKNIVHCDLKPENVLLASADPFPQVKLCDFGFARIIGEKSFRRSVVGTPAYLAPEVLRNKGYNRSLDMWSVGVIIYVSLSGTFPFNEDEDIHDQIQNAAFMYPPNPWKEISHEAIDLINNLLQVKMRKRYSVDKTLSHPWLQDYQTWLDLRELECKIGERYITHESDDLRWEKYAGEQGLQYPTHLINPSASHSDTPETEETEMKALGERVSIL

## CN(C(=O)CN1CCOCC1)c1ccc2sc3c(-c4cccc5c(=O)cc(N6CC7CCC(C6)O7)oc45)cccc3c2c1 [NU5455]
  inhibition at 1 µM: -8.5%
